Measured values taken from US8822503B2, “2-pyridone compounds” (Taisho Pharmaceutical Co., Ltd, priority 2009, dated 2014).
pEC50: −log10 of the molar value.

These compounds were tested against T1, human liver GK (Homo sapiens, UniProt P35557) (assay: GK activation test). Settings: test compound concentration needed to activate 50% of maximum activation ability; 4 mM 14C-labeled glucose, 2 mM ATP, room temperature, 20 minutes.
T1 construct: GST (glutathione S-transferase) (N); made in house; host or cells: E. coli
T1 sequence (P35557 1-466 isoform P35557-2): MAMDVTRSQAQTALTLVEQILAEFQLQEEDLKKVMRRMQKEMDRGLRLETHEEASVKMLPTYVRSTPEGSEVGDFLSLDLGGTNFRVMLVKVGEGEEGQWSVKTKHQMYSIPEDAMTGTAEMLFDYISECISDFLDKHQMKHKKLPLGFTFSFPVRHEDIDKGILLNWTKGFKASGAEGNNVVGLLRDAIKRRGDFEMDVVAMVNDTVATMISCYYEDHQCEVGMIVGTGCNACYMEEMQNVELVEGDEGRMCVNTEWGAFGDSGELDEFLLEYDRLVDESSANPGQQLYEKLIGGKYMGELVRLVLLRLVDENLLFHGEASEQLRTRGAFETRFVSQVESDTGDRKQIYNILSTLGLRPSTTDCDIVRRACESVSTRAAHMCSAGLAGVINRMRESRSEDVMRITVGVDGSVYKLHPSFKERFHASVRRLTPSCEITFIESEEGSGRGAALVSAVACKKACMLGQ
Type: biochemical
Summary of the method: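 GST-tagged human liver GK from E. coli (0.24 μg/well) with 4 mM 14C-glucose, 2 mM ATP in Hepes-KOH pH 7.1, KCl, MgCl2, DTT, 1% DMSO, 20 min room temperature. Labeled glucose 6-phosphate captured on anion resin, eluted and counted. EC50 = concentration giving half of maximal activation.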

pEC50 | Structure (SMILES)
6.30 to 8.00 | CCc1ccc(/C(=C\[C@H]2CCC(=O)N2)c2ccc(C3CC3)c(=O)[nH]2)cc1 [Example 4-5, 3-Cyclopropyl-6-{(E)-1-(4-ethylphenyl)-2-[(2R)-5-oxopyrrolidin-2-yl]ethenyl}pyridin-2(1H)-one]
6.30 to 8.00 | CCOc1ccc(/C(=C\[C@H]2CCC(=O)N2)c2ccc(C3CC3)c(=O)[nH]2)cc1 [Example 4-6, 3-Cyclopropyl-6-{(E)-1-(4-ethoxyphenyl)-2-[(2R)-5-oxopyrrolidin-2-yl]ethenyl}pyridin-2(1H)-one]
5.52 to 6.30 | CCOc1cccc(/C(=C\[C@H]2CCC(=O)N2)c2ccc(C3CC3)c(=O)[nH]2)c1 [Example 4-7, 3-Cyclopropyl-6-{(E)-1-(3-ethoxyphenyl)-2-[(2R)-5-oxopyrrolidin-2-yl]ethenyl}pyridin-2(1H)-one]
5.52 to 6.30 | O=C1CC[C@H](/C=C(\c2cccc(OCCCO)c2)c2ccc(C3CC3)c(=O)[nH]2)N1 [Example 4-8, 3-Cyclopropyl-6-{(E)-1-[3-(3-hydroxypropoxy)phenyl]-2-[(2R)-5-oxopyrrolidin-2-yl]ethenyl}pyridin-2(1H)-one]
6.30 to 8.00 | CCOc1ccc(/C(=C\[C@H]2CCC(=O)N2)c2ccc(C3CC3)c(=O)[nH]2)cc1Cl [Example 4-10, 6-{(E)-1-(3-Chloro-4-ethoxyphenyl)-2-[(2R)-5-oxopyrrolidin-2-yl]ethenyl}-3-cyclopropylpyridin-2(1H)-one]
6.30 to 8.00 | Cc1cc(/C(=C\[C@H]2CCC(=O)N2)c2ccc(C3CC3)c(=O)[nH]2)ccc1SC1CC1 [Example 4-12, 3-Cyclopropyl-6-{(E)-1-[4-(cyclopropylsulfanyl)-3-methylphenyl]-2-[(2R)-5-oxopyrrolidin-2-yl]ethenyl}pyridin-2(1H)-one]
6.30 to 8.00 | O=C1CC[C@H](/C=C(\c2ccc(SC3CC3)c(Cl)c2)c2ccc(Cl)c(=O)[nH]2)N1 [Example 4-13, 3-Chloro-6-{(E)-1-[3-chloro-4-(cyclopropylsulfanyl)phenyl]-2-[(2R)-5-oxopyrrolidin-2-yl]ethenyl}pyridin-2(1H)-one]
5.52 to 6.30 | CCc1ccc(/C(=C\[C@H]2CCC(=O)N2)c2ccc(Cl)c(=O)[nH]2)cc1 [Example 4-14, 3-Chloro-6-{(E)-1-(4-ethylphenyl)-2-[(2R)-5-oxopyrrolidin-2-yl]ethenyl}pyridin-2(1H)-one]
6.30 to 8.00 | CC(C)c1ccc(/C(=C\[C@H]2CCC(=O)N2)c2ccc(Cl)c(=O)[nH]2)cc1 [Example 4-15, 3-Chloro-6-{(E)-2-[(2R)-5-oxopyrrolidin-2-yl]-1-[4-(propan-2-yl)phenyl]ethenyl}pyridin-2(1H)-one]
5.52 to 6.30 | CCCc1ccc(/C(=C\[C@H]2CCC(=O)N2)c2ccc(Cl)c(=O)[nH]2)cc1 [Example 4-16, 3-Chloro-6-[(E)-2-[(2R)-5-oxopyrrolidin-2-yl]-1-(4-propylphenyl)ethenyl]pyridin-2(1H)-one]
6.30 to 8.00 | CCCCc1ccc(/C(=C\[C@H]2CCC(=O)N2)c2ccc(Cl)c(=O)[nH]2)cc1 [Example 4-17, 6-{(E)-1-(4-Butylphenyl)-2-[(2R)-5-oxopyrrolidin-2-yl]ethenyl}-3-chloropyridin-2(1H)-one]
6.30 to 8.00 | CC(C)(C)c1ccc(/C(=C\[C@H]2CCC(=O)N2)c2ccc(Cl)c(=O)[nH]2)cc1 [Example 4-18, 6-{(E)-1-(4-tert-Butylphenyl)-2-[(2R)-5-oxopyrrolidin-2-yl]ethenyl}-3-chloropyridin-2(1H)-one]
5.52 to 6.30 | O=C1CC[C@H](/C=C(\c2ccc(C(F)(F)F)cc2)c2ccc(Cl)c(=O)[nH]2)N1 [Example 4-19, 3-Chloro-6-{(E)-2-[(2R)-5-oxopyrrolidin-2-yl]-1-[4-(trifluoromethyl)phenyl]ethenyl}pyridin-2(1H)-one]
6.30 to 8.00 | CC(C)CCCOc1ccc(/C(=C\[C@H]2CCC(=O)N2)c2ccc(Cl)c(=O)[nH]2)cc1Cl [Example 4-21, 3-Chloro-6-{(E)-1-{3-chloro-4-[(4-methylpentyl)oxy]phenyl}-2-[(2R)-5-oxopyrrolidin-2-yl]ethenyl}pyridin-2(1H)-one]
6.30 to 8.00 | CC(C)COc1ccc(/C(=C\[C@H]2CCC(=O)N2)c2ccc(Cl)c(=O)[nH]2)cc1Cl [Example 4-22, 3-Chloro-6-{(E)-1-[3-chloro-4-(2-methylpropoxy)phenyl]-2-[(2R)-5-oxopyrrolidin-2-yl]ethenyl}pyridin-2(1H)-one]
5.52 to 6.30 | Cc1ccc(/C(=C\[C@H]2CCC(=O)N2)c2ccc(Cl)c(=O)[nH]2)cc1C [Example 4-23, 3-Chloro-6-{(E)-1-(3,4-dimethylphenyl)-2-[(2R)-5-oxopyrrolidin-2-yl]ethenyl}pyridin-2(1H)-one]
5.52 to 6.30 | Cc1ccc(/C(=C\[C@H]2CCC(=O)N2)c2ccc(Cl)c(=O)[nH]2)cc1Cl [Example 4-24, 3-Chloro-6-{(E)-1-(3-chloro-4-methylphenyl)-2-[(2R)-5-oxopyrrolidin-2-yl]ethenyl}pyridin-2(1H)-one]
5.52 to 6.30 | Cc1ccc(/C(=C\[C@H]2CCC(=O)N2)c2ccc(Cl)c(=O)[nH]2)cc1C(F)(F)F [Example 4-25, 3-Chloro-6-{(E)-1-[4-methyl-3-(trifluoromethyl)phenyl]-2-[(2R)-5-oxopyrrolidin-2-yl]ethenyl}pyridin-2(1H)-one]
5.52 to 6.30 | O=C1CC[C@H](/C=C(\c2ccc(CCCCO)cc2)c2ccc(Cl)c(=O)[nH]2)N1 [Example 4-26, 3-Chloro-6-{(E)-1-[4-(4-hydroxybutyl)phenyl]-2-[(2R)-5-oxopyrrolidin-2-yl]ethenyl}pyridin-2(1H)-one]
6.30 to 8.00 | CCSc1ccc(/C(=C\[C@H]2CCC(=O)N2)c2ccc(Cl)c(=O)[nH]2)cc1Cl [Example 4-27, 3-Chloro-6-{(E)-1-[3-chloro-4-(ethylsulfanyl)phenyl]-2-[(2R)-5-oxopyrrolidin-2-yl]ethenyl}pyridin-2(1H)-one]
5.52 to 6.30 | CC(C)COCCc1ccc(/C(=C\[C@H]2CCC(=O)N2)c2ccc(Cl)c(=O)[nH]2)cc1 [Example 4-28, 3-Chloro-6-{(E)-1-{4-[2-(2-methylpropoxy)ethyl]phenyl}-2-[(2R)-5-oxopyrrolidin-2-yl]ethenyl}pyridin-2(1H)-one]
5.52 to 6.30 | CC(C)Cc1ccc(/C(=C\[C@H]2CCC(=O)N2)c2ccc(Cl)c(=O)[nH]2)cc1 [Example 4-29, 3-Chloro-6-{(E)-1-[4-(2-methylpropyl)phenyl]-2-[(2R)-5-oxopyrrolidin-2-yl]ethenyl}pyridin-2(1H)-one]
5.52 to 6.30 | O=C1CC[C@H](/C=C(\c2ccc(OC(F)(F)F)cc2)c2ccc(Cl)c(=O)[nH]2)N1 [Example 4-30, 3-Chloro-6-{(E)-2-[(2R)-5-oxopyrrolidin-2-yl]-1-[4-(trifluoromethoxy)phenyl]ethenyl}pyridin-2(1H)-one]
5.00 to 5.52 | Cc1ccc(/C(=C\[C@H]2CCC(=O)N2)c2ccc(Cl)c(=O)[nH]2)c(C)c1 [Example 4-31, 3-Chloro-6-{(E)-1-(2,4-dimethylphenyl)-2-[(2R)-5-oxopyrrolidin-2-yl]ethenyl}pyridin-2(1H)-one]
6.30 to 8.00 | CC(C)Oc1ccc(/C(=C\[C@H]2CCC(=O)N2)c2ccc(Cl)c(=O)[nH]2)cc1Cl [Example 4-32, 3-Chloro-6-{(E)-1-[3-chloro-4-(propan-2-yloxy)phenyl]-2-[(2R)-5-oxopyrrolidin-2-yl]ethenyl}pyridin-2(1H)-one]
6.30 to 8.00 | O=C1CC[C@H](/C=C(\c2ccc(SC3CCCC3)cc2)c2ccc(Cl)c(=O)[nH]2)N1 [Example 4-33, 3-Chloro-6-{(E)-1-[4-(cyclopentylsulfanyl)phenyl]-2-[(2R)-5-oxopyrrolidin-2-yl]ethenyl}pyridin-2(1H)-one]
5.52 to 6.30 | Cc1cc(/C(=C\[C@H]2CCC(=O)N2)c2ccc(Cl)c(=O)[nH]2)ccc1SC1CC1 [Example 4-34, 3-Chloro-6-{(E)-1-[4-(cyclopropylsulfanyl)-3-methylphenyl]-2-[(2R)-5-oxopyrrolidin-2-yl]ethenyl}pyridin-2(1H)-one]
5.52 to 6.30 | CSc1ccc(/C(=C\[C@H]2CCC(=O)N2)c2ccc(Cl)c(=O)[nH]2)cc1C(F)(F)F [Example 4-35, 3-Chloro-6-{(E)-1-[4-(methylsulfanyl)-3-(trifluoromethyl)phenyl]-2-[(2R)-5-oxopyrrolidin-2-yl]ethenyl}pyridin-2(1H)-one]

Structure (SMILES) | pEC50
O=C1CC[C@H](/C=C(\c2cccc(OCCCCO)c2)c2ccc(C3CC3)c(=O)[nH]2)N1 [Example 4-9, 3-Cyclopropyl-6-{(E)-1-[3-(4-hydroxybutoxy)phenyl]-2-[(2R)-5-oxopyrrolidin-2-yl]ethenyl}pyridin-2(1H)-one] | 5.52 to 6.30
O=C1CC[C@H](/C=C(\c2ccc(OCCCCO)c(Cl)c2)c2ccc(C3CC3)c(=O)[nH]2)N1 [Example 4-11, 6-{(E)-1-[3-Chloro-4-(4-hydroxybutoxy)phenyl]-2-[(2R)-5-oxopyrrolidin-2-yl]ethenyl}-3-cyclopropylpyridin-2(1H)-one] | 6.30 to 8.00
CC(C)CCOc1ccc(/C(=C\[C@H]2CCC(=O)N2)c2ccc(Cl)c(=O)[nH]2)cc1Cl [Example 4-20, 3-Chloro-6-{(E)-1-[3-chloro-4-(3-methylbutoxy)phenyl]-2-[(2R)-5-oxopyrrolidin-2-yl]ethenyl}pyridin-2(1H)-one] | 6.30 to 8.00
